Like-named read-outs stand apart in the source and are kept apart here.
Target: T1, CIB1 and αIIb interaction (CIB1-GST : F-αIIb peptide) (Homo sapiens, UniProt Q99828)
T1 construct: made in house; host or cells: BL-21 plus RIL cells (E. coli)
T1 sequence (Q99828 1-191): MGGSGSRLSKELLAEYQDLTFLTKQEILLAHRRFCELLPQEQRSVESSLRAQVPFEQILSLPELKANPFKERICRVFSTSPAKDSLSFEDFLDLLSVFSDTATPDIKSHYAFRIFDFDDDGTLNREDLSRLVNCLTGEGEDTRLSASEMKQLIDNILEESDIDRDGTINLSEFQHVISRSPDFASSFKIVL
Assay: FP assay, 1536-well qHTS format (primary and confirmatory screen)
Format: binding
Details: for Efficacy (%): negative = inhibition; for IC50: read-out: IC50; for Curve Class: negative sign = inhibitory curve

[1] = qHTS primary screen hits, Table S2
[2] = qHTS primary screen hits, Table S2, several classes where COUNT > 1
[3] = qHTS primary screen of LOPAC/NPACT libraries

SMILES | Efficacy (%) [1] [%] | IC50 [1] [µM] | Efficacy (%) [3] [%] | Curve Class [3] | IC50 [3] [µM] | further results
O=C(Nc1nc(-c2ccccc2)cs1)c1ccncc1NS(=O)(=O)c1ccc(Cl)cc1.O=C(O)C(F)(F)F [NCGC00344892-01] | -48 | 53.2 |  |  |  | 
O=C(Nc1ccc(S(=O)(=O)N2CCOCC2)cc1)c1ccc(CN2CCCc3ccccc32)cc1.O=C(O)C(F)(F)F [NCGC00348355-01] | -15 | 50.1 |  |  |  | Curve Class [2]: -2.4
C=C1C2(C)CC3C(C)(O)C4=CC(=O)OC(C)(C)C4=CCC3(C)C13C(=O)OC(C)C3(O)C2=O (centres unmarked) [NCGC00380442-01] |  |  | -28 | -2.4 | 35.5 | 
C[C@H](O)C(=O)C1=Nc2c(nc(N)[nH]c2=O)NC1 [NCGC00094391-03] | -40 | 35.5 |  |  |  | Curve Class [1]: -2.2
CCOC(=O)C1=C(C)NC(C)=C(C(=O)OCC)C1c1c(F)c(F)c(F)c(F)c1F [NCGC00186027-01] |  |  | -13 | -1.2 | 6.3 | 
CN(C)c1cc2c(Nc3ccc4c(cnn4Cc4ccccc4)c3)ncnc2cn1 [NCGC00015468-06] |  |  | -28 | -2.4 | 56.2 | 
COc1ccc2[nH]c([S+]([O-])Cc3ncc(C)c(OC)c3C)nc2n1 (centres unmarked) [NCGC00167521-02] |  |  |  |  |  | Efficacy (%) (qHTS FP screen hits, Table S2): -34%; IC50 (qHTS FP screen hits, Table S2): 47.4 µM
COc1ccnc(C[S+]([O-])c2nc3cc(OC(F)F)ccc3[nH]2)c1OC (centres unmarked) [NCGC00388526-02] |  |  | -26 | -2.4 | 56.2 | 
C[C@@]1(C2CCCC2)Cc2cc(OCC(=O)O)c(Cl)c(Cl)c2C1=O [NCGC00094034-06] |  |  | -28 | -2.2 | 25.1 | 
CN(N=O)c1ccc(O)c(O)c1 [NCGC00015706-04] | -66 | 56.2 |  |  |  | Curve Class [2]: -2.4
CCOC(=O)C1=C(C)NC(C)=C(C(=O)OC)C1c1cccc(Cl)c1Cl (centres unmarked) [NCGC00015455-08] |  |  | -26 | -2.2 | 50.1 | 
Cc1cccc(S(=O)(=O)Nc2cnccc2C(=O)Nc2nc(-c3ccccc3)cs2)c1.O=C(O)C(F)(F)F [NCGC00344904-01] | -43 | 56.2 |  |  |  | Curve Class [2]: -2.4
C=CC(=O)Nc1cccc(Nc2nc(Nc3ccc(OCCOC)cc3)ncc2F)c1 [NCGC00386306-06] |  |  | -22 | -1.4 | 10 | 
O=C(O)C(F)(F)F.O=C1CC(c2c(F)cccc2F)c2sc(N3CCOCC3)nc2N1 (centres unmarked) [NCGC00488261-02] | -47 | 56.2 |  |  |  | Curve Class [2]: -2.4
CN(C)CC/C=C1/c2ccccc2Sc2cc(Cl)ccc21.Cl [NCGC00162079-02] |  |  | -13 | -2.4 | 70.8 | 
Cc1cc(C)nc(NC(=S)N2CCN(c3cccc4ccncc34)CC2)c1.O=C(O)C(F)(F)F [NCGC00244146-01] | -30 | 79.4 |  |  |  | Curve Class [1]: -2.4
O=C(O)CC1(O)C(=O)Nc2ccccc21 (centres unmarked) [NCGC00385842-01] |  |  | -28 | -2.4 | 56.2 | 
Cc1cc(OCCCS(C)(=O)=O)cc(C)c1-c1cccc(COc2ccc(-c3cc(=O)[nH][s+]3[O-])cc2)c1 (centres unmarked) [NCGC00485952-01] |  |  | -27 | -1.4 | 4 | 
O=C(NCc1ccc(Oc2ccccc2)cc1)c1nc(-c2cc(Br)c(O)c(Br)c2)no1 [NCGC00386303-01] |  |  | -24 | -1.4 | 17.8 | 
O=C1Cc2c([nH]c3ccc(Br)cc23)-c2ccccc2N1 [NCGC00015582-06] |  |  | -19 | -1.4 | 20 | 

SMILES | Efficacy (%) [1] [%] | IC50 [1] [µM] | Efficacy (%) [3] [%] | Curve Class [3] | IC50 [3] [µM] | further results
CCOC(=O)c1nnc(NS(=O)(=O)c2ccc(NC(=O)Cc3ccc(Cl)c(Cl)c3)cc2)s1.O=C(O)C(F)(F)F [NCGC00248354-02] | -28 | 31.4 |  |  |  | 
O=C1C(SCCO)=C(SCCO)C(=O)c2ccccc21 [NCGC00015729-08] | -77 | 44.7 |  |  |  | Curve Class [1]: -2.2
CC(=O)NCc1ccc(-c2csc(Nc3cc(C)cc(C)c3)n2)o1.O=C(O)C(F)(F)F [NCGC00314997-03] | -84 | 50.1 |  |  |  | Curve Class [2]: -2.4
COc1cc(/C=C/c2ccccc2)c(C(=O)O)c(O)c1CC=C(C)C [NCGC00385333-01] |  |  | -18 | -2.4 | 31.6 | 
C=C(C)C(=O)OC1CC2(C)OC(=CC2=O)C(=C)CC2OC(=O)C(=C)C12 (centres unmarked) [NCGC00381113-01] |  |  | -22 | -1.4 | 8.9 | 
CN(C)[C@@H]1C(=O)C(C(=O)NCN2CCCC2)=C(O)[C@@]2(O)C(=O)C3=C(O)c4c(O)cccc4[C@@](C)(O)[C@H]3C[C@@H]12 [NCGC00263906-02] | -27 | 56.2 |  |  |  | Curve Class [1]: -2.4
Cc1ccc(Cl)c(Nc2ccccc2C(=O)O)c1Cl [NCGC00023217-06] | -57 | 44.7 |  |  |  | Curve Class [1]: -2.2
Cc1c2c(=O)n(-c3ccccc3)[nH]c2cc(=O)n1Cc1ccncc1.O=C(O)C(F)(F)F [NCGC00248478-01] | -31 | 50.1 |  |  |  | Curve Class [2]: -2.4
COc1cccc2c1C(=O)c1c(O)c3c(c(O)c1C2=O)C[C@@](O)(C(=O)CO)C[C@@H]3O[C@H]1C[C@H](N)[C@@H](O)[C@H](C)O1 [NCGC00263918-04] | -58 | 18.5 |  |  |  | 
CN(C)CCc1c[nH]c2ccc(O)cc12 [NCGC00247724-01] | -23 | 112 |  |  |  | Curve Class [1]: -2.4
Nc1ccc(-c2nc3ccc(-c4nc5cc(N)ccc5[nH]4)cc3[nH]2)cc1 [NCGC00094031-06] | -33 | 39.8 |  |  |  | Curve Class [2]: -2.2
Cc1ccc(-c2c(C(=O)CCl)n(CCCO)c3ncnc(N)c23)cc1 [NCGC00485901-01] |  |  | -25 | -1.4 | 3.5 | 
O=C(O)C(F)(F)F.O=S(=O)(Nc1ccc(O)c2ncccc12)c1ccccc1F [NCGC00184887-02] | -48 | 79.4 |  |  |  | Curve Class [2]: -3
O=C(Nc1ncc([N+](=O)[O-])s1)c1ccccc1O [NCGC00388427-01] |  |  | -31 | -2.4 | 44.7 | 
O=C(O)C(F)(F)F.OCc1ccc(-c2ccc3ncnc(NCc4ncc[nH]4)c3c2)o1 [NCGC00188670-01] | -33 | 56.2 |  |  |  | Curve Class [2]: -2.4
CC(NC(=O)CC(=O)O)c1nc2ccccc2c(=O)[nH]1 (centres unmarked) [NCGC00385407-01] |  |  | -145 | -2.1 | 28.2 | 
CC/C(=C(\c1ccc(O)cc1)c1ccc(OCCNC)cc1)c1ccccc1 [NCGC00386714-01] |  |  | -33 | -2.4 | 79.4 | 
CCCOc1ccccc1-c1nc(=O)c2nn[nH]c2[nH]1 [NCGC00016105-05] |  |  | -22 | -1.4 | 14.1 | 
O=C(Nc1ccc2ccccc2c1)Nc1nnc(-c2ccccn2)s1.O=C(O)C(F)(F)F [NCGC00188528-01] | -30 | 56.2 |  |  |  | Curve Class [2]: -2.4
